Consider nine compounds from patent US7863014B2 (priority 2001, dated 2011).

Assay [1] deals with M. tuberculosis Ppnk protein (Mycobacterium tuberculosis, UniProt P9WHV7). Format: biochemical, M. tuberculosis H37Rv.
The test system of assay [2] is polyphosphate-dependent NAD kinase from Micrococcus flavus. Format: biochemical.

M. tuberculosis Ppnk protein, sequence (P9WHV7 whole entry): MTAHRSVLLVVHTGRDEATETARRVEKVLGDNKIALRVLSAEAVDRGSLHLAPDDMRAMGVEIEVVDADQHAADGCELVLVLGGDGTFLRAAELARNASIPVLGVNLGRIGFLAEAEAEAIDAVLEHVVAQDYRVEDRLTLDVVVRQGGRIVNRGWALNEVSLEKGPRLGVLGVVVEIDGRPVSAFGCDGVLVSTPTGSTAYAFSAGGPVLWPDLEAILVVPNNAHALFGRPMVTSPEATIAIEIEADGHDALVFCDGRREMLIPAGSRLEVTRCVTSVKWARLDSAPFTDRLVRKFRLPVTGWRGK

For `[Cl-].[Cl-].[Zn+2]` [ZnCl2], the “Activation by metal ions” value in assay [1] and in assay [2] was “ZnCl2 (30%)” throughout.
For `[Cl-].[Cl-].[Co+2]` [CoCl2], the “Activation by metal ions” value is on record as “CoCl2 (55%)” in assay [1] and “CoCl2 (51%)” in assay [2].
Taken in the same sequence, the figures for `[Cl][Cu][Cl]` [CuCl2] were “CuCl2 (8%)” and “CuCl2 (33%)”.
Consider `[Cl][Mn][Cl]` [MnCl2], for which the results for the “Activation by metal ions” value in assay [1] and in assay [2] were “MnCl2 (268%)” and “MnCl2 (143%)”, respectively.
For the compound `[Ca+2].[Cl-].[Cl-]` [CaCl2], the “Activation by metal ions” value in assay [1] is “CaCl2 (34%)”; in assay [2], “CaCl2 (65%)”.
Take `[Cl][Al]([Cl])[Cl]` [AlCl3]: the “Activation by metal ions” value in assay [1] and in assay [2] was “AlCl3 (0%)” throughout.
`Nc1ncnc2c1ncn2[C@@H]1O[C@H](COP(=O)(O)OP(=O)(O)OP(=O)(O)O)[C@@H](O)[C@H]1O` [ATP]: the ATP/polyphosphate reaction ratio result in assay [1] and in assay [2] was “ATP (100%)” in each case.
`O=P1(O)OP(=O)(O)OP(=O)(O)OP(=O)(O)OP(=O)(O)OP(=O)(O)O1` [hexametaphosphate]: the results for the Polyphosphate specificity entry in assay [1] and in assay [2] were “(72%)” and “(58%)”, respectively.
`[Cl-].[Cl-].[Mg+2]` [MgCl2]: the “Activation by metal ions” value in assay [1] and in assay [2] was “MgCl2 (100%)” in each case.
